# Assay results taken from ChEMBL document CHEMBL2062379, “Cleavage mechanism and anti-tumor activity of 3,6-epidioxy-1,10-bisaboladiene isolated from edible wild plants” (Bioorg Med Chem, 2012).
# Active and inactive are the calls of the source. The rule behind the calls is not given here.
# Assays:
# HL-60 [1] = experiment: Induction of apoptosis in human HL60 cells assessed as condensed and fragmented nuclie at 10.6 uM after 18 hrs by Hoechst staining-based microscopic analysis relative to control; assay type: functional, cell-based
# HL-60 [2] = experiment: Induction of apoptosis in human HL60 cells assessed as caspase 3/7 activation after 1 to 6 hrs by spectrophotometric analysis; assay type: functional, cell-based
# [3] = biological target: MAP kinase p38 (Homo sapiens) (UniProt O15264+Q15759+Q16539+P53778); experiment: Induction of p38 MAPK phosphorylation at T180/Y182 in human HL60 cells at 5 uM after 6 hrs by Western blot analysis; assay type: cell-based; details: HL-60
# NCI-H23 = experiment: Growth inhibition of human NCI-H23 cells; assay type: functional
# OVCAR-3 = experiment: Growth inhibition of human OVCAR3 cells; assay type: functional
# HL-60 [4] = experiment: Induction of apoptosis in human HL60 cells assessed as DNA fragmentation after 24 hrs by Hoechst staining-based microscopic analysis in presence of 50 uM superoxide scavenger allopurinol; assay type: functional, cell-based
# MKN-7 = experiment: Growth inhibition of human MKN7 cells; assay type: functional
# NCI-H226 = experiment: Growth inhibition of human NCI-H226 cells; assay type: functional
# HT-29 = experiment: Growth inhibition of human HT-29 cells; assay type: functional
# LOX IMVI = experiment: Growth inhibition of human LOXIMVI cells; assay type: functional
# HL-60 [5] = experiment: Induction of apoptosis in human HL60 cells assessed as caspase 8 activation at 20 uM after 3 hrs by spectrophotometric analysis; assay type: functional, cell-based
# Saccharomyces cerevisiae [6] = experiment: Growth restoration activity in cdc2-1 rad9-deficient Saccharomyces cerevisiae assessed as growth zone at 4 ug/disc incubated at 37 degC for 6 hrs and 28 degC for 2 days; assay type: functional
# Mus musculus = experiment: Toxicity in nude mouse bearing human LOXIMVI cells assessed as change in body weight at 25 mg/kg, iv administered on day 1, 6 and 11; assay type: organism-based, LOX IMVI; design: dose 25 mg/kg, route intravenous; details: in vivo
# Saccharomyces cerevisiae [7] = experiment: Growth restoration activity in cdc2-1 rad9-deficient Saccharomyces cerevisiae assessed as growth zone at 0.5 ug/disc incubated at 37 degC for 6 hrs and 28 degC for 2 days; assay type: functional
# HL-60 [8] = experiment: Induction of apoptosis in human HL60 cells assessed as caspase 9 activation after 1 to 6 hrs by spectrophotometric analysis; assay type: functional, cell-based
# [9] = Prodrug conversion in buffer at pH 8 assessed as (1)- 7-(1,5-Dimethyl-hex-4-enyl)-4-methyl-3,8-dioxa-tricyclo[5.1.0.0*2,4*]octane formation after 24 hrs by HPLC analysis in presence of 25 mM FeSO4; assay type: physicochemical; details: pH 8, 24 h
# OVCAR-4 = experiment: Growth inhibition of human OVCAR4 cells; assay type: functional
# HL-60 [10] = experiment: Ratio of IC50 for human HL60 cells in presence of DFOM to IC50 for human HL60 cells in absence of DFOM; assay type: functional
# HL-60 [11] = experiment: Induction of apoptosis in human HL60 cells assessed as DNA fragmentation after 24 hrs by Hoechst staining-based microscopic analysis preincubated with 10 uM ERK inhibitor PD98059; assay type: functional, cell-based
smiles,measurement,setting,value
CC(C)=CCCC(C)C12C=CC(C)(CC1)OO2 (centres undefined),Activity,HL-60 [1],Active
same,Activity,HL-60 [2],Dose-dependent effect
same,Activity,[3],Active
same,GI50,NCI-H23,1700 nM
same,GI50,OVCAR-3,1740 nM
same,Activity,HL-60 [4],Active
same,GI50,MKN-7,3630 nM
same,GI50,NCI-H226,3890 nM
same,GI50,HT-29,178 nM
same,GI50,LOX IMVI,214 nM
same,Activity,HL-60 [5],Active
same,Activity,Saccharomyces cerevisiae [6],29 mm
same,Activity,Mus musculus,Non-toxic
same,Activity,Saccharomyces cerevisiae [7],0 mm
same,Activity,HL-60 [8],Dose-dependent effect
same,Drug metabolism,[9],Active
same,GI50,OVCAR-4,1820 nM
same,Ratio IC50,HL-60 [10],10
same,Activity,HL-60 [11],Active
